Test results from US4496568A, “Antiinflammatory thieno [2,3-c]pyridine derivatives” (PACOR, priority 1977, dated 1985).

Experiments:
Assay type in all cases: in vivo
[1] = system: ovalbumin-induced systemic edema; assay: Ovalbumin-induced systemic edema (anti-inflammatory activity); details: rats, 100 mg/kg orally 1 hour before and simultaneously with ovalbumin, vs reference group
Procedure: (§1) The pharmacological investigation concerned the anti-inflammatory activity of the compounds of this invention. This activity was investigated according to 2 methods:
(b) Method of the ovalbumin-induced systemic edema
A simultaneous intraperitoneal injection of 1 ml ovalbumin and 0,5 ml of 1% aqueous Evans blue solution is effected in rats. On the other hand, the animals of the treated group are orally administered 100 mg/kg body weight of the test derivative, 1 hour prior to ovalbumin administration and simultaneously therewith. The intensity of the phenomenon thus induced is rated according to a scale from 1 to 5, according to the progress of the inflammatory syndrome. Thus are determined, as a function of time, the mean intensity of the edema and the percent decrease of the edema reaction with respect to the reference group.

[2] = system: localized carrageenin-induced edema; assay: Localized carrageenin-induced edema (anti-inflammatory activity); details: rats, 100 mg/kg orally 1 hour before, at, and 1 and 2.5 hours after carrageenin, vs reference group
Procedure: as §1
(a) Method of localized carrageenin-induced edema
An 1% (0.1 ml) carrageenin solution is injected in the metatarsal flexor muscles of the right hind limb of rats at time 0. The animals of the treated group are additionally administered orally 100 mg/kg body weight of the test derivative, respectively 1 hour prior to injection of the phlogogenic agent, simultaneously with said injection, and then 1 and 2.5 hours thereafter. The determinations effected with a ROCH micrometer at times 0, 1 hour 2 hrs, 3 hrs and 5 hrs after carrageenin administration provide a measure, as a function of time, of the percent anti-inflammatoryactivity, with respect to the reference group.

[3] = system: mice; assay: Acute intravenous toxicity LD50

Question: Which “Percent anti-inflammatory activity after 2 hrs” value [1] does the source give for `Cc1cc2c(O)cncc2s1` [Derivative No. 4, 4-hydroxy-2-methyl-thieno[2,3-c]pyridine] here?
Answer: 48%

Question: What about the “Percent anti-inflammatory activity after 3 hrs” value [1] of the same molecule?
Answer: 60%

Question: What about the “Percent anti-inflammatory activity after 1 hr” value [2] of the same molecule?
Answer: 45%

Question: And the “Percent anti-inflammatory activity after 2 hrs” value [2]?
Answer: 49%

Question: What about the “Percent anti-inflammatory activity after 3 hrs” value [2] of the same molecule?
Answer: 50%

Question: And the “Percent anti-inflammatory activity after 5 hrs” value [2]?
Answer: 52%

Question: `Oc1cncc2sccc12` [Derivative No. 2, 4-hydroxy-thieno[2,3-c]pyridine] was tested. Which “Percent anti-inflammatory activity after 2 hrs” value [1] did it give?
Answer: 49%

Question: And the “Percent anti-inflammatory activity after 3 hrs” value [1]?
Answer: 58%

Question: What about the “Percent anti-inflammatory activity after 1 hr” value [2] of the same molecule?
Answer: 40%

Question: What about the “Percent anti-inflammatory activity after 2 hrs” value [2] of the same molecule?
Answer: 45%

Question: And the “Percent anti-inflammatory activity after 3 hrs” value [2]?
Answer: 49%

Question: And the “Percent anti-inflammatory activity after 5 hrs” value [2]?
Answer: 49%

Question: What does the source list for `Cc1ncc(O)c2ccsc12` [Derivative No. 3, 4-hydroxy-7-methyl-thieno[2,3-c]pyridine]?
Answer: Percent anti-inflammatory activity after 2 hrs [1]: 53%; Percent anti-inflammatory activity after 3 hrs [1]: 61%; Percent anti-inflammatory activity after 1 hr [2]: 42%; Percent anti-inflammatory activity after 2 hrs [2]: 48%; Percent anti-inflammatory activity after 3 hrs [2]: 52%; Percent anti-inflammatory activity after 5 hrs [2]: 51%

Question: For `Oc1cncc2ccsc12` [Derivative No. 1, 7-hydroxy-thieno[3,2-c]pyridine], which “Percent anti-inflammatory activity after 2 hrs” value [1] is on record?
Answer: 44%

Question: What about the “Percent anti-inflammatory activity after 3 hrs” value [1] of the same molecule?
Answer: 50%

Question: And the LD50 [3]?
Answer: 131 mg

Question: What about the “Percent anti-inflammatory activity after 1 hr” value [2] of the same molecule?
Answer: 43%

Question: And the “Percent anti-inflammatory activity after 2 hrs” value [2]?
Answer: 46%

Question: What about the “Percent anti-inflammatory activity after 3 hrs” value [2] of the same molecule?
Answer: 48%

Question: And the “Percent anti-inflammatory activity after 5 hrs” value [2]?
Answer: 49%
